Here are results for 50 molecules from US20160039825A1 (BIOGEN MA INC., priority 2013, published 2016).

For orientation: IC50 means the concentration at which inhibition is half-maximal.

The target in the test is T1, Human ATX protein (Homo sapiens, UniProt Q13822).
T1 construct: made in house
In words: Autotaxin (ATX) assay, FRET with FS-3 substrate. To be noted: upper bound bins (no greater than 100, 250 or 500 nM); FS-3 2 μM, ATX 1.0 μg/mL. The class given is biochemical. An outline of the steps: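 Hydrolysis of the FRET substrate FS-3 (2 μM final) unquenches fluorescein, read at excitation 485 nm and emission 538 nm after 2 h at room temperature, protected from light. Purified human ATX (1.0 μg/mL) and compound were first incubated for 30 min in pH 7.4 Tris/salt buffer containing 1 mg/mL fatty acid-free BSA.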
Molecule `CC1CC(Nc2cc3n(n2)CCCN(C(=O)OCc2cc(C(F)(F)F)cc(C(F)(F)F)c2)C3)CCN1` (centres unmarked) [Example 315] returned an IC50 of no more than 100 nM.
Take `O=C(OCc1cc(C(F)(F)F)cc(C(F)(F)F)c1)N1CCCn2nc(NC3CC4CCCC(C3)N4)cc2C1` (centres unmarked) [Example 316]: the IC50 is no more than 100 nM.
`O=C(OCc1cc(C(F)(F)F)cc(C(F)(F)F)c1)N1CCCn2nc(NC3CCCNC3)cc2C1` (centres unmarked) [Example 317] showed an IC50 of no more than 250 nM.
On to `O=C(OCc1cc(C(F)(F)F)cc(C(F)(F)F)c1)N1CCCn2nc(NC3CC4CCC(C3)N4)cc2C1` (centres unmarked) [Example 318], for which the IC50 was no more than 100 nM.
To `CC(C)(C)C1CC(Nc2cc3n(n2)CCCN(C(=O)OCc2cc(C(F)(F)F)cc(C(F)(F)F)c2)C3)CCN1` (centres unmarked) [Example 319] belongs no more than 100 nM.
Turning to `CC1(C)CC(Nc2cc3n(n2)CCCN(C(=O)OCc2cc(C(F)(F)F)cc(C(F)(F)F)c2)C3)CCN1` (centres unmarked) [Example 320], the IC50 was no more than 100 nM.
Take `CC1CC(Nc2cc3n(n2)CCCN(C(=O)OCc2cc(C(F)(F)F)cc(C(F)(F)F)c2)C3)CC(C)N1` (centres unmarked) [Example 322]: the IC50 is no more than 100 nM.
In the case of `CCC1CC(Nc2cc3n(n2)CCCN(C(=O)OCc2cc(C(F)(F)F)cc(C(F)(F)F)c2)C3)CCN1` (centres unmarked) [Example 323], the IC50 was no more than 100 nM.
To `O=C(OCc1cc(C(F)(F)F)cc(C(F)(F)F)c1)N1CCCn2nc(NC3CCCCNC3)cc2C1` (centres unmarked) [Example 326] belongs no more than 100 nM.
`O=C(OCc1cc(C(F)(F)F)cc(C(F)(F)F)c1)N1CCCn2nc(N3CCCCC3=O)cc2C1` [Example 328, 3,5-bis(trifluoromethyl)benzyl 2-(2-oxopiperidin-1-yl)-7,8-dihydro-4H-pyrazolo[1,5-a][1,4]diazepine-5(6H)-carboxylate] yielded a half-inhibitory concentration (IC50) of no more than 100 nM.
On to `CC(=O)Nc1cc2n(n1)CCCN(C(=O)OCc1cc(C(F)(F)F)cc(C(F)(F)F)c1)C2` [Example 337, 3,5-bis(trifluoromethyl)benzyl 2-acetamido-7,8-dihydro-4H-pyrazolo[1,5-a][1,4]diazepine-5(6H)-carboxylate], for which the IC50 is no more than 100 nM.
As to `CN1CCN(c2cc3n(n2)CCCN(C(=O)OCc2cc(C(F)(F)F)cc(C(F)(F)F)c2)C3)CC1` [Example 338, 3,5-bis(trifluoromethyl)benzyl 2-(4-methylpiperazin-1-yl)-7,8-dihydro-4H-pyrazolo[1,5-a][1,4]diazepine-5(6H)-carboxylate], the IC50 is no more than 100 nM.
To `O=C(OCc1cc(C(F)(F)F)cc(C(F)(F)F)c1)N1CCCn2nc(N3CCNCC3)cc2C1` [Example 339] belongs no more than 250 nM; to `CC1(C)CN(c2cc3n(n2)CCCN(C(=O)OCc2cc(C(F)(F)F)cc(C(F)(F)F)c2)C3)CCN1` [Example 340], no more than 100 nM; to `CCC1CN(c2cc3n(n2)CCCN(C(=O)OCc2cc(C(F)(F)F)cc(C(F)(F)F)c2)C3)CCN1` (centres unmarked) [Example 341], no more than 100 nM.
Molecule `O=C(OCc1cc(C(F)(F)F)cc(C(F)(F)F)c1)N1CCCn2nc(N3CCCNCC3)cc2C1` [Example 342] gave an IC50 of no more than 100 nM.
In turn, `CC1CN(c2cc3n(n2)CCCN(C(=O)OCc2cc(C(F)(F)F)cc(C(F)(F)F)c2)C3)CCN1` (centres unmarked) [Example 343] registered an IC50 of no more than 100 nM.
As for `O=C(OCc1cc(C(F)(F)F)cc(C(F)(F)F)c1)N1CCCn2nc(N3CC4CCC(C3)N4)cc2C1` [Example 344], the figure is no more than 250 nM; as for `CC1CN(c2cc3n(n2)CCCN(C(=O)OCc2cc(C(F)(F)F)cc(C(F)(F)F)c2)C3)CC(C)N1` (centres unmarked) [Example 345], no more than 100 nM.
For `O=C(OCc1cc(C(F)(F)F)cc(C(F)(F)F)c1)N1CCCn2nc(N3CCN4CCC[C@H]4C3)cc2C1` [Example 346], the IC50 was no more than 100 nM.
`O=C(OCc1cc(C(F)(F)F)cc(C(F)(F)F)c1)N1CCCn2nc(N3CCN4CCC[C@@H]4C3)cc2C1` [Example 347]: the IC50 was no more than 100 nM.
On to `O=C(OCc1cc(C(F)(F)F)cc(C(F)(F)F)c1)N1CCCn2nc(N3CCNC4(CC4)C3)cc2C1` [Example 348], for which the IC50 was no more than 100 nM.
For the molecule `CN1CC2CN(c3cc4n(n3)CCCN(C(=O)OCc3cc(C(F)(F)F)cc(C(F)(F)F)c3)C4)CC2C1` (centres unmarked) [Example 349], the IC50 was no more than 100 nM.
Molecule `CCN1CC2CN(c3cc4n(n3)CCCN(C(=O)OCc3cc(C(F)(F)F)cc(C(F)(F)F)c3)C4)CC2C1` (centres unmarked) [Example 350] had an IC50 of no more than 100 nM.
Turning to `O=C(OCc1cc(C(F)(F)F)cc(C(F)(F)F)c1)N1CCCn2nc(N3CC4CNCC4C3)cc2C1` (centres unmarked) [Example 351], the IC50 was no more than 100 nM.
`CN1CCC(Nc2cc3n(n2)CCCN(C(=O)OCc2cc(C(F)(F)F)cc(C(F)(F)F)c2)C3)CC1` [Example 352, 3,5-bis(trifluoromethyl)benzyl 2-((1-methylpiperidin-4-yl)amino)-7,8-dihydro-4H-pyrazolo[1,5-a][1,4]diazepine-5(6H)-carboxylate] came in with an IC50 of no more than 250 nM.
`CN1CCN(c2cc3n(n2)CCCN(C(=O)OCc2cc(C(F)(F)F)cc(C(F)(F)F)c2)C3)CC12CC2` [Example 353] came in with an IC50 of no more than 100 nM.
`CCN1CCN(c2cc3n(n2)CCCN(C(=O)OCc2cc(C(F)(F)F)cc(C(F)(F)F)c2)C3)CC1` [Example 354] came in with an IC50 of no more than 100 nM.
As for `CN1CCCN(c2cc3n(n2)CCCN(C(=O)OCc2cc(C(F)(F)F)cc(C(F)(F)F)c2)C3)CC1` [Example 355], the figure is no more than 100 nM.
In turn, `CC(C)N1CCN(c2cc3n(n2)CCCN(C(=O)OCc2cc(C(F)(F)F)cc(C(F)(F)F)c2)C3)CC1` [Example 356] showed an IC50 of no more than 100 nM.
The molecule `CCCN1CCN(c2cc3n(n2)CCCN(C(=O)OCc2cc(C(F)(F)F)cc(C(F)(F)F)c2)C3)CC1` [Example 357] showed an IC50 of no more than 100 nM.
`O=C(OCc1cc(C(F)(F)F)cc(C(F)(F)F)c1)N1CCCn2nc(N3CCN(CCO)CC3)cc2C1` [Example 358] showed an IC50 of no more than 100 nM.
With `O=C(OCc1cc(C(F)(F)F)cc(C(F)(F)F)c1)N1CCCn2nc(N3CCC4NCCC43)cc2C1` (centres unmarked) [Example 359], the IC50 is no more than 100 nM.
For `CN1CCC2C1CCN2c1cc2n(n1)CCCN(C(=O)OCc1cc(C(F)(F)F)cc(C(F)(F)F)c1)C2` (centres unmarked) [Example 360], the IC50 is no more than 100 nM.
Molecule `CC(Nc1cc2n(n1)CCCN(C(=O)OCc1cc(C(F)(F)F)cc(C(F)(F)F)c1)C2)C(=O)O` (centres unmarked) [Example 361, 2-((5-(((3,5-bis(trifluoromethyl)benzyl)oxy)carbonyl)-5,6,7,8-tetra-hydro-4H-pyrazolo[1,5-a][1,4]diazepin-2-yl)amino)propanoic acid] had an IC50 of no more than 250 nM.
Regarding `CCC(Nc1cc2n(n1)CCCN(C(=O)OCc1cc(C(F)(F)F)cc(C(F)(F)F)c1)C2)C(=O)O` (centres unmarked) [Example 362], the IC50 is no more than 100 nM.
For `CC(C)C(Nc1cc2n(n1)CCCN(C(=O)OCc1cc(C(F)(F)F)cc(C(F)(F)F)c1)C2)C(=O)O` (centres unmarked) [Example 363], the IC50 is no more than 100 nM.
With `O=C(OCc1cc(C(F)(F)F)cc(C(F)(F)F)c1)N1CCCn2nc(-c3ccncc3)cc2C1` [Example 367], the IC50 was no more than 100 nM.
With `Cc1cc(-c2cc3n(n2)CCCN(C(=O)OCc2cc(C(F)(F)F)cc(C(F)(F)F)c2)C3)ccn1` [Example 368], the IC50 was no more than 100 nM.
As for `O=C(OCc1cc(Cl)cc(C(F)(F)F)c1)N1CCCn2nc(-c3ccncc3)cc2C1` [Example 369, 3-chloro-5-(trifluoromethyl)benzyl 2-(pyridin-4-yl)-7,8-dihydro-4H-pyrazolo[1,5-a][1,4]diazepine-5(6H)-carboxylate], the figure is no more than 100 nM; as for `Cc1cc(-c2cc3n(n2)CCCN(C(=O)OCc2cc(Cl)cc(C(F)(F)F)c2)C3)ccn1` [Example 370], no more than 100 nM; as for `CN1CC=C(c2cc3n(n2)CCCN(C(=O)OCc2cc(C(F)(F)F)cc(C(F)(F)F)c2)C3)CC1` [Example 371, 3,5-bis(trifluoromethyl)benzyl 2-(1-methyl-1,2,3,6-tetrahydropyridin-4-yl)-7,8-dihydro-4H-pyrazolo[1,5-a][1,4]diazepine-5(6H)-carboxylate], no more than 100 nM.
As for `CN1CCC(c2cc3n(n2)CCCN(C(=O)OCc2cc(C(F)(F)F)cc(C(F)(F)F)c2)C3)CC1` [Example 372, 3,5-bis(trifluoromethyl)benzyl 2-(1-methylpiperidin-4-yl)-7,8-dihydro-4H-pyrazolo[1,5-a][1,4]diazepine-5(6H)-carboxylate], the IC50 was no more than 100 nM.
As for `O=C(OCc1cc(C(F)(F)F)cc(C(F)(F)F)c1)N1CCCn2nc(C3=CCNCC3)cc2C1` [Example 373, 3,5-bis(trifluoromethyl)benzyl 2-(1,2,3,6-tetrahydropyridin-4-yl)-7,8-dihydro-4H-pyrazolo[1,5-a][1,4]diazepine-5(6H)-carboxylate], the figure is no more than 100 nM.
`CC(C)(C)OC(=O)N1CCC(c2cc3n(n2)CCCN(C(=O)OCc2cc(C(F)(F)F)cc(C(F)(F)F)c2)C3)CC1` [Example 374, 3,5-bis(trifluoromethyl)benzyl 2-(1-(tert-butoxycarbonyl)piperidin-4-yl)-7,8-dihydro-4H-pyrazolo[1,5-a][1,4]diazepine-5(6H)-carboxylate] registered an IC50 of no more than 100 nM.
As for `O=C(OCc1cc(C(F)(F)F)cc(C(F)(F)F)c1)N1CCCn2nc(C3CCNCC3)cc2C1` [Example 375, 3,5-bis(trifluoromethyl)benzyl 2-(piperidin-4-yl)-7,8-dihydro-4H-pyrazolo[1,5-a][1,4]diazepine-5(6H)-carboxylate], the IC50 was no more than 100 nM.
Consider `O=C(OCc1cc(C(F)(F)F)cc(C(F)(F)F)c1)N1CCCn2nc(C3=CC4CCC(C3)N4)cc2C1` (centres unmarked) [Example 376], for which the IC50 is no more than 100 nM.
The molecule `O=C(OCc1cc(C(F)(F)F)cc(C(F)(F)F)c1)N1CCCn2nc(C3CC4CCC(C3)N4)cc2C1` (centres unmarked) [Example 377] came in with an IC50 of no more than 100 nM.
In turn, `CC1C=C(c2cc3n(n2)CCCN(C(=O)OCc2cc(C(F)(F)F)cc(C(F)(F)F)c2)C3)CC(C)N1` (centres unmarked) [Example 378] gave an IC50 of no more than 100 nM.
With `CN1C2C=C(c3cc4n(n3)CCCN(C(=O)OCc3cc(C(F)(F)F)cc(C(F)(F)F)c3)C4)CC1CC2` (centres unmarked) [Example 379], the IC50 is no more than 100 nM.
